For test [1], the target named is T1, prostanoide receptor subtype (human EP4) (Homo sapiens, UniProt P35408).
T1 construct: expressed in transfected cells; host or cells: COS-7 cells (membrane fraction)
As to the kind of experiment: Binding assay using expression of prostanoide receptor subtype ([3H]-PGE2, membrane fraction of transfected COS-7 cells). Conditions: test compound 1.0 × 10^−7M; [3H]-PGE2 binding, COS-7 membrane, human EP4, 1 hour at 30° C. The protocol:
Binding Assay Using Expression of Prostanoide Receptor Subtype
The membrane fraction was prepared using COS-7 cells transfected prostanoide receptor subtype (human EP4).
The standard assay mixture contained membrane fraction, [^3H]-PGE2 in final volume of 0.25 ml was incubated for 1 hour at 30° C. The reaction was terminated by that the mixture was rapidly filtered through a glass filter (GF/B). Then the filter was washed by 4ml of ice-cold buffer at two times. The radioactivity associated with the filter was measured by liquid scintillation counting.
In the experiment for competition of specific [^3H]-PGE2 was added at a concentration of 10 μM. The following buffer was used in all reactions.
Buffer: 20 mM Mes (pH 6.0), 1 mM EDTA, 10 mM MgCl2

The subject of test [2] is Mesangial Proliferative Glomerulonephritis Model. In words: Mesangial proliferative glomerulonephritis model (OX-7 mAb i.v.), urinary protein. Format: in vivo. The conditions noted are these: 24 h urine 1 day after OX-7, female Wistar rats, Normal 40.8 ± 2.3, Control 127.9 ± 12.6. On the procedure:
Methods of Mesangial Proliferative Glomerulonephritis Model
Female Wistar rats, 6 weeks old were purchased from SLC (Shizuoka, Japan). Glomerulosclerosis model was produced by intravenous injections (i.v.) of the monoclonal antibody (mAb), MRC OX-7 (Dainippon Co. Ltd., Osaka, Japan). The 8 weeks old rats were divided into 4 groups (10 rats/group). Group 1 was injected saline instead of OX-7 as a normal group and treated with vehicle (0.5% methylcellulose solution) only. Group 2 was also treated with the vehicle only after the injection of 1 mg/kg OX-7 as a control group. Group 3 and Group 4 were treated with N-benzylsulfonyl-3-{[(1S)-2-(4,5-diphenyloxazol-2-yl)-2-cyclohexen-1-yl]methyl}benzamide (Example 2-75), as shown in the following Table. The compound was orally given every day from 5 days before to one day after i.v. administration of the antibody. Urine was collected for 24 hours from the rats in metabolic cages 1 day after injection of OX-7 and the amount of protein in each sample was determined by the biuret method using bovine serum albumine as the standard. All the rats were sacrificed 2 days after injection of OX-7. Blood biochemical analysis was carried out. [drawing 11]

The source of these data is US6437146B1, “Oxazole compounds as prostaglandin e2 agonists or antagonists” (Fujisawa Pharmaceutical Co., Ltd., priority 1998, dated 2002).

T1 sequence (P35408 whole entry): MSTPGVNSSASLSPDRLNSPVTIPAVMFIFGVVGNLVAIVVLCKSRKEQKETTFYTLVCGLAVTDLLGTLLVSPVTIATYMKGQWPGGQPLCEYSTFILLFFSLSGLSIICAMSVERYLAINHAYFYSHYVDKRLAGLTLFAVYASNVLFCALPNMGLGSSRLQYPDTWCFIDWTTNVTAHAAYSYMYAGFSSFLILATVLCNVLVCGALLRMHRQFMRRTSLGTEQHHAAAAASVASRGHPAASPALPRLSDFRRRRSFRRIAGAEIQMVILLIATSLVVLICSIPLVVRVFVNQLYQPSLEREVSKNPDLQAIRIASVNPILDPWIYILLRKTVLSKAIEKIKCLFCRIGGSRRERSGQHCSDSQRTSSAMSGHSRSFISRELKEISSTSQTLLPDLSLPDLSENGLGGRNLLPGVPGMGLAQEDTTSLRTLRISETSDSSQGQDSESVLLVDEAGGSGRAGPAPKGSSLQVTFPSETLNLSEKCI

Consider `O=C(NS(=O)(=O)Cc1ccccc1)c1cccc(C[C@@H]2CCCC=C2c2nc(-c3ccccc3)c(-c3ccccc3)o2)c1` [Example 2-75, N-benzylsulfonyl-3-{[(1S)-2-(4,5-diphenyloxazol-2-yl)-2-cyclohexen-1-yl]methyl}benzamide], for which, in test [1], the inhibition (in general, how much of the control response was suppressed) at 0.1 µM is no less than 80%. Moreover, the “Urinary Protein” value in test [2] (1 mg/kg orally every day from 5 days before to one day after OX-7) amounted to 98.2 ± 20.9 mg/day; in test [2] (10 mg/kg orally every day from 5 days before to one day after OX-7), 66.4 ± 6.9 mg/day.

For `O=C(NOCc1ccccc1)c1cccc(C[C@@H]2CCCC=C2c2nc(-c3ccccc3)c(-c3ccccc3)o2)c1` [Example 2-46, N-benzyloxy-3-{[(1S)-2-(4,5-diphenyloxazol-2-yl)-2-cyclohexen-1-yl]methyl}benzamide], the inhibition at 0.1 µM in test [1] is no less than 80%.

`O=C(NCC(c1ccccc1)c1ccccc1)c1cccc(C[C@@H]2CCC[C@H]2c2nc(-c3ccccc3)c(-c3ccccc3)o2)c1` [Example 1-50, N-(2,2-diphenylethyl)-3-{[(1S,2R)-2-(4,5-diphenyloxazol-2-yl)-1-cyclopentyl]methyl}benzamide] displayed an inhibition at 0.1 µM in test [1] of no less than 80%.

With `O=C(NCC(O)c1ccccc1)c1cccc(C[C@@H]2CCC[C@H]2c2nc(-c3ccccc3)c(-c3ccccc3)o2)c1` (stereo partly drawn) [Example 1-47, N-[(2-hydroxy-2-phenyl)ethyl]-3-{[(1S,2R)-2-(4,5-diphenyloxazol-2-yl)-1-cyclopentyl]methyl}benzamide], the “Inhibition (%)” value in test [1] is listed as “≧80%”.
